In PubChem BioAssay (NCI) one finds TGI data, which are given here for eleven compounds.

Among the test systems are NCI/ADR-RES ovarian; SF-539 CNS; SF-295 CNS; PC-3 prostate; HL-60(TB) leukemia; CAKI-1 renal; A549 NSCLC; SK-OV-3 ovarian; SK-MEL-28 melanoma; KM12 colon; BT-549 breast; 786-0 renal; A498 renal; TK-10 renal; MDA-MB-231 breast; HCT-15 colon; NCI-H226 lung; SK-MEL-2 melanoma; CCRF-CEM leukemia; SF-268 CNS.
What all share (assay): NCI anticancer screen, dose series, 48 h

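Growth conditions: 96-well plates. Treatment: test compound, 48 hours, 5 concentrations. Analysis: linear interpolation between bracketing concentrations; unreached endpoints set to highest concentration. Definition used: TGI = concentration required for complete inhibition of growth.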 Where a SMILES comes first, the peptide text is derived from it. [ ]: non-standard residue; d: D form. The star is where a group is joined. ξ: configuration not given here. dThr(3ξ) = CC(O)[C@@H](N)C(=O)O; dNMeL = CN[C@H](CC(C)C)C(=O)O; OBn = c1ccc(CO*)cc1; ξLac = CC(O)C(=O)O

For the compound `CC(=O)OC(C)[C@@H](NC(=O)[C@@H](CC(C)C)N(C)C(=O)[C@@H]1CCCN1C(=O)C(C)O)C(=O)OCc1ccccc1` (some centres not stated) (H-[ξLac]P[dNMeL][dThr(3ξ)](Ac)-OBn), the TGI in the test with NCI/ADR-RES ovarian, in the test with SF-539 CNS, in the test on SF-295 CNS, in the test with PC-3 prostate, in the test with HL-60(TB) leukemia and in the test with CAKI-1 renal was above 100 µM throughout. Also, the TGI with A549 NSCLC, in the test with SK-OV-3 ovarian, in the test with SK-MEL-28 melanoma, in the test on KM12 colon, in the test with BT-549 breast and in the test on 786-0 renal was above 100 µM in each case. The TGI with A498 renal, in the test with TK-10 renal, in the test on MDA-MB-231 breast, with HCT-15 colon, with NCI-H226 lung and in the test on SK-MEL-2 melanoma was above 100 µM throughout. The TGI with CCRF-CEM leukemia and in the test with SF-268 CNS was above 100 µM in each case.
As to `c1ccc(C2C3=C(CCCC3)Nc3nc4cc5ccccc5cc4n32)cc1` (configuration not stated), the TGI in the test with NCI/ADR-RES ovarian, in the test on SF-539 CNS, in the test with SF-295 CNS, in the test with PC-3 prostate, with HL-60(TB) leukemia and in the test with CAKI-1 renal was above 100 µM throughout. Moreover, the TGI in the test on A549 NSCLC, with SK-OV-3 ovarian, with SK-MEL-28 melanoma, in the test on KM12 colon, with BT-549 breast and in the test on 786-0 renal was above 100 µM in each case. The TGI in the test on A498 renal, in the test with MDA-MB-231 breast, with HCT-15 colon, in the test on NCI-H226 lung, in the test with SK-MEL-2 melanoma and in the test with CCRF-CEM leukemia was above 100 µM each time. In the test with SF-268 CNS, this compound displayed a TGI above 100 µM.
Consider `CCCCCC(O)[C@H]1C(=O)C[C@@H](O[Si](C)(C)C(C)(C)C)[C@@H]1/C=C/CCOCc1ccccc1` (some centres not stated), for which the TGI was 29.3 µM in the test with NCI/ADR-RES ovarian; 29.5 µM in the test with SF-539 CNS; 20.3 µM in the test on SF-295 CNS; 30.9 µM with PC-3 prostate; above 100 µM in the test on HL-60(TB) leukemia; 29.9 µM in the test with CAKI-1 renal. For the same compound, the TGI with A549 NSCLC was above 60.3 µM; in the test on SK-OV-3 ovarian, 31.1 µM; with SK-MEL-28 melanoma, 31 µM; in the test on KM12 colon, 17.2 µM; with BT-549 breast, 21.3 µM; in the test on 786-0 renal, 26.1 µM. For the same compound, the TGI with A498 renal was 39.9 µM; with TK-10 renal, 28.5 µM; with MDA-MB-231 breast it was 61.8 µM; in the test with HCT-15 colon it was 27.4 µM; in the test on NCI-H226 lung, 27.5 µM; in the test on SK-MEL-2 melanoma, 31.2 µM. Also, the TGI in the test with CCRF-CEM leukemia was above 100 µM; in the test on SF-268 CNS it was 33.2 µM.
Regarding `O=C(c1cccc(OCc2ccccc2)c1OCc1ccccc1)N1CCSC1=S`, the TGI in the test with NCI/ADR-RES ovarian was above 100 µM; with SF-539 CNS, above 100 µM; in the test on SF-295 CNS it was above 100 µM; in the test with PC-3 prostate, above 100 µM; in the test with HL-60(TB) leukemia, 33.1 µM; with CAKI-1 renal it was above 92.9 µM. For the same compound, the TGI with A549 NSCLC is above 100 µM; in the test with SK-OV-3 ovarian it was above 100 µM; in the test with SK-MEL-28 melanoma, above 100 µM; in the test on KM12 colon, 36.9 µM; in the test on BT-549 breast, above 100 µM; in the test with 786-0 renal it was above 100 µM. The TGI is 80.1 µM in the test with A498 renal; above 100 µM in the test with TK-10 renal; above 78.2 µM with MDA-MB-231 breast; above 100 µM with HCT-15 colon; above 100 µM with NCI-H226 lung; above 75.4 µM in the test on SK-MEL-2 melanoma. Further, the TGI is 24.4 µM with CCRF-CEM leukemia and above 52.8 µM in the test with SF-268 CNS.
On to `CS(=O)(=O)c1nc(-c2cc3c(c(S(C)(=O)=O)n2)CCCC3)cc2c1CCCC2`, for which the TGI with NCI/ADR-RES ovarian is above 100 µM; in the test on SF-539 CNS it was above 100 µM; in the test with SF-295 CNS, above 93.9 µM; in the test on PC-3 prostate, above 100 µM; in the test with HL-60(TB) leukemia it was above 100 µM; in the test on CAKI-1 renal it was above 59.1 µM. In addition, the TGI in the test on A549 NSCLC was above 100 µM; in the test with SK-OV-3 ovarian, above 64.7 µM; in the test with SK-MEL-28 melanoma, above 100 µM; in the test with KM12 colon it was above 100 µM; in the test with BT-549 breast, above 82.2 µM; in the test with 786-0 renal, above 100 µM. For the same compound, the TGI in the test on A498 renal, with TK-10 renal, in the test on MDA-MB-231 breast, in the test on HCT-15 colon, in the test on NCI-H226 lung and in the test with SK-MEL-2 melanoma was above 100 µM each time. In addition, the TGI in the test on CCRF-CEM leukemia was above 100 µM; with SF-268 CNS, above 47.3 µM.
With `COC(=O)c1ccc(N=NN(C)COc2ccc(C#N)cc2)cc1`, the TGI in the test on NCI/ADR-RES ovarian is above 100 µM; in the test on SF-539 CNS, above 100 µM; with SF-295 CNS, above 100 µM; in the test with PC-3 prostate, above 100 µM; in the test with HL-60(TB) leukemia, 50.4 µM; in the test on CAKI-1 renal, above 100 µM. The TGI in the test on A549 NSCLC, with SK-OV-3 ovarian, in the test on SK-MEL-28 melanoma, with KM12 colon, with BT-549 breast and with 786-0 renal was above 100 µM throughout. Also, the TGI in the test with A498 renal, with TK-10 renal, in the test with MDA-MB-231 breast, in the test with HCT-15 colon, with NCI-H226 lung and with SK-MEL-2 melanoma was above 100 µM throughout. Moreover, the TGI in the test with CCRF-CEM leukemia and in the test on SF-268 CNS was above 100 µM each time.
In the case of `COc1[nH]c(C(Cl)(Cl)Cl)c(Cl)c(=O)c1Cl`, the TGI in the test on NCI/ADR-RES ovarian, with SF-539 CNS, in the test on SF-295 CNS, in the test on PC-3 prostate, in the test on HL-60(TB) leukemia and in the test on CAKI-1 renal was above 100 µM in each case. Besides, the TGI in the test on A549 NSCLC, in the test with SK-OV-3 ovarian, with SK-MEL-28 melanoma, in the test on KM12 colon, with BT-549 breast and in the test on 786-0 renal was above 100 µM throughout. The TGI in the test with A498 renal, with TK-10 renal, in the test with MDA-MB-231 breast, in the test on HCT-15 colon, with NCI-H226 lung and in the test on SK-MEL-2 melanoma was above 100 µM in each case. The compound also yielded a TGI in the test on CCRF-CEM leukemia above 100 µM.
On to `OCC1OC(Oc2cc(O)cc(/C=C\c3ccc(O)cc3)c2)C(O)C(O)C1O` (configuration not stated), for which the TGI in the test on NCI/ADR-RES ovarian, in the test with SF-539 CNS, with SF-295 CNS, in the test with PC-3 prostate, in the test with HL-60(TB) leukemia and in the test on CAKI-1 renal was above 100 µM throughout. In addition, the TGI in the test on A549 NSCLC, with SK-OV-3 ovarian, in the test on SK-MEL-28 melanoma, in the test with KM12 colon, in the test on BT-549 breast and with 786-0 renal was above 100 µM throughout. Also, the TGI in the test with A498 renal, in the test with TK-10 renal, in the test with MDA-MB-231 breast, with HCT-15 colon, with NCI-H226 lung and with SK-MEL-2 melanoma was above 100 µM each time. In the test on CCRF-CEM leukemia, this compound gave a TGI above 100 µM.
With `O=c1c2cc([N+](=O)[O-])ccc2n(Cc2ccccc2)n1Cc1ccccc1`, the TGI was 20.3 µM in the test on NCI/ADR-RES ovarian; above 31.6 µM in the test on SF-539 CNS; above 31.6 µM in the test on SF-295 CNS; 31 µM with PC-3 prostate; 22.7 µM in the test on HL-60(TB) leukemia; above 31.6 µM in the test with CAKI-1 renal. Further, the TGI in the test on A549 NSCLC was above 31.6 µM; in the test on SK-MEL-28 melanoma, above 31.6 µM; in the test on KM12 colon, 22.2 µM; in the test with BT-549 breast, 27 µM; in the test with 786-0 renal, above 31.6 µM; with A498 renal it was above 31.6 µM. In addition, the TGI in the test on TK-10 renal is above 31.6 µM; in the test on MDA-MB-231 breast, 29.1 µM; with HCT-15 colon, above 31.6 µM; with NCI-H226 lung, above 31.6 µM; with SK-MEL-2 melanoma it was 20.2 µM; in the test with CCRF-CEM leukemia it was above 31.6 µM. Moreover, the TGI in the test on SF-268 CNS is above 31.6 µM.
Take `OC(c1cccnc1)C(F)(F)c1nc2ccccc2o1` (configuration not stated): the TGI in the test with NCI/ADR-RES ovarian, with SF-539 CNS, with PC-3 prostate, in the test on HL-60(TB) leukemia, in the test on CAKI-1 renal and in the test on SK-MEL-28 melanoma was above 100 µM in each case. The TGI in the test on KM12 colon, with BT-549 breast, in the test on 786-0 renal, in the test with A498 renal, in the test on TK-10 renal and in the test with MDA-MB-231 breast was above 100 µM in each case. For the same compound, the TGI in the test with HCT-15 colon, in the test with NCI-H226 lung, in the test with SK-MEL-2 melanoma, with CCRF-CEM leukemia and in the test with SF-268 CNS was above 100 µM each time.
As to `O=S(=O)(/N=C(\NO)Nc1ccc(Cl)cc1)c1ccc(S(=O)(=O)c2ccccc2)s1`, the TGI in the test on NCI/ADR-RES ovarian was above 100 µM; in the test on SF-539 CNS, 63.7 µM; in the test on SF-295 CNS it was above 100 µM; with PC-3 prostate, above 100 µM; in the test with HL-60(TB) leukemia it was 50.6 µM; in the test with CAKI-1 renal, 91.4 µM. Moreover, the TGI in the test with A549 NSCLC was above 100 µM; in the test on SK-MEL-28 melanoma, 40.7 µM; in the test with KM12 colon, 60.4 µM; with BT-549 breast it was 44.7 µM; in the test on 786-0 renal, above 100 µM; in the test on A498 renal it was 41.8 µM. Also, the TGI in the test with TK-10 renal was 66.3 µM; in the test on MDA-MB-231 breast, 86.2 µM; in the test with HCT-15 colon, above 100 µM; with NCI-H226 lung, 52.1 µM; in the test on SK-MEL-2 melanoma, 37.4 µM; with CCRF-CEM leukemia, 51.6 µM. The same compound gave a TGI with SF-268 CNS of 90.7 µM.
